Source: ChEMBL document CHEMBL3885881, “DrugMatrix”

Species on record: Rattus norvegicus
Assay: DrugMatrix - Regimen: Daily Repeat
Format: toxicity, organism-based, Sprague-Dawley
Set-up: regimen Daily Repeat, gender Male, age 6-8 weeks
Details: in vivo, po, route oral GAVAGE, vehicle .5 % CMC; for ABSOLUTE BASOPHIL / ABSOLUTE EOSINOPHIL / ABSOLUTE LYMPHOCYTE / ABSOLUTE MONOCYTE / ABSOLUTE SEGMENTED NEUTROPHIL / BASOPHIL / EOSINOPHIL / ERYTHROCYTE COUNT / HEMATOCRIT / HEMOGLOBIN / LEUKOCYTE COUNT / LYMPHOCYTE / MEAN CORPUSCULAR HEMOGLOBIN / MEAN CORPUSCULAR HEMOGLOBIN CONCENTRATION / MEAN CORPUSCULAR VOLUME / MONOCYTE / NEUTROPHIL / NUCLEATED RED BLOOD CELLS / PLATELET COUNT: tissue Blood; for ALANINE AMINOTRANSFERASE / ALBUMIN / ALKALINE PHOSPHATASE / ASPARTATE AMINOTRANSFERASE / BLOOD UREA NITROGEN / CARBON DIOXIDE / CHLORIDE / CHOLESTEROL / CREATINE PHOSPHOKINASE / CREATININE / GLUCOSE / LACTATE DEHYDROGENASE / LIPASE / PHOSPHORUS / POTASSIUM / SODIUM / TOTAL BILIRUBIN / TOTAL PROTEIN / URIC ACID: tissue Plasma
[1] = 0 mg/kg, 72 h, dose level Control, time 3 day
[2] = 0 mg/kg, 120 h, dose level Control, time 5 day
[3] = 10 mg/kg, 72 h, dose level Low, time 3 day

CC(C)(C#N)c1cc(Cn2cncn2)cc(C(C)(C)C#N)c1 [ANASTROZOLE]
ABSOLUTE BASOPHIL [1]: 0 CELLS/uL | ABSOLUTE EOSINOPHIL [1]: 0 CELLS/uL | ABSOLUTE LYMPHOCYTE [1]: 10913.67 CELLS/uL | ABSOLUTE MONOCYTE [1]: 85.33 CELLS/uL | ABSOLUTE SEGMENTED NEUTROPHIL [1]: 1401 CELLS/uL | BASOPHIL [1]: 0% | EOSINOPHIL [1]: 0% | ERYTHROCYTE COUNT [1]: 5.57 x10E6/uL | HEMATOCRIT [1]: 35.58% | HEMOGLOBIN [1]: 13.8 G/DL | LEUKOCYTE COUNT [1]: 12.4 x10E3/uL | LYMPHOCYTE [1]: 88% | MEAN CORPUSCULAR HEMOGLOBIN [1]: 24.78 pg | MEAN CORPUSCULAR HEMOGLOBIN CONCENTRATION [1]: 38.82 G/DL | MEAN CORPUSCULAR VOLUME [1]: 63.88 fL | MONOCYTE [1]: 0.67% | NEUTROPHIL [1]: 11.33% | NUCLEATED RED BLOOD CELLS [1]: 0 /100WBC | PLATELET COUNT [1]: 1162.33 x10E3/uL | ALANINE AMINOTRANSFERASE [1]: 53 u/L | ALBUMIN [1]: 4.17 G/DL | ALKALINE PHOSPHATASE [1]: 374.5 u/L | ASPARTATE AMINOTRANSFERASE [1]: 89.5 u/L | BLOOD UREA NITROGEN [1]: 16.33 mg/dL | CARBON DIOXIDE [1]: 29.17 mmol/L | CHLORIDE [1]: 97.67 MEQ/L | CHOLESTEROL [1]: 77 mg/dL | CREATINE PHOSPHOKINASE [1]: 464.83 u/L | CREATININE [1]: 0.14 mg/dL | GLUCOSE [1]: 164 mg/dL | LACTATE DEHYDROGENASE [1]: 155.5 u/L | LIPASE [1]: 9.17 u/L | PHOSPHORUS [1]: 12.4 mg/dL | POTASSIUM [1]: 6.91 MEQ/L | SODIUM [1]: 141.47 MEQ/L | TOTAL BILIRUBIN [1]: 0.2 mg/dL | TOTAL PROTEIN [1]: 5.95 G/DL | URIC ACID [1]: 1.72 mg/dL | ABSOLUTE BASOPHIL [2]: 0 CELLS/uL | ABSOLUTE EOSINOPHIL [2]: 20.5 CELLS/uL | ABSOLUTE LYMPHOCYTE [2]: 13871.67 CELLS/uL | ABSOLUTE MONOCYTE [2]: 60.5 CELLS/uL | ABSOLUTE SEGMENTED NEUTROPHIL [2]: 980.67 CELLS/uL | BASOPHIL [2]: 0% | EOSINOPHIL [2]: 0.17% | ERYTHROCYTE COUNT [2]: 5.65 x10E6/uL | HEMATOCRIT [2]: 35.63% | HEMOGLOBIN [2]: 14.08 G/DL | LEUKOCYTE COUNT [2]: 14.93 x10E3/uL | LYMPHOCYTE [2]: 92.83% | MEAN CORPUSCULAR HEMOGLOBIN [2]: 24.97 pg | MEAN CORPUSCULAR HEMOGLOBIN CONCENTRATION [2]: 39.55 G/DL | MEAN CORPUSCULAR VOLUME [2]: 63.13 fL | MONOCYTE [2]: 0.33% | NEUTROPHIL [2]: 6.67% | NUCLEATED RED BLOOD CELLS [2]: 0 /100WBC | PLATELET COUNT [2]: 1248.17 x10E3/uL | ALANINE AMINOTRANSFERASE [2]: 45.17 u/L | ALBUMIN [2]: 4.27 G/DL | ALKALINE PHOSPHATASE [2]: 405.67 u/L | ASPARTATE AMINOTRANSFERASE [2]: 74.17 u/L | BLOOD UREA NITROGEN [2]: 15.5 mg/dL | CARBON DIOXIDE [2]: 30.17 mmol/L | CHLORIDE [2]: 100.67 MEQ/L | CHOLESTEROL [2]: 57 mg/dL | CREATINE PHOSPHOKINASE [2]: 239.5 u/L | CREATININE [2]: 0.17 mg/dL | GLUCOSE [2]: 165.67 mg/dL | LACTATE DEHYDROGENASE [2]: 90.5 u/L | LIPASE [2]: 8.83 u/L | PHOSPHORUS [2]: 12.32 mg/dL | POTASSIUM [2]: 7.03 MEQ/L | SODIUM [2]: 142.65 MEQ/L | TOTAL BILIRUBIN [2]: 0.18 mg/dL | TOTAL PROTEIN [2]: 6.03 G/DL | URIC ACID [2]: 1.98 mg/dL | ABSOLUTE BASOPHIL [3]: 0 CELLS/uL | ABSOLUTE EOSINOPHIL [3]: 62 CELLS/uL | ABSOLUTE LYMPHOCYTE [3]: 13335.67 CELLS/uL | ABSOLUTE MONOCYTE [3]: 144.33 CELLS/uL | ABSOLUTE SEGMENTED NEUTROPHIL [3]: 2091.33 CELLS/uL | BASOPHIL [3]: 0% | EOSINOPHIL [3]: 0.33% | ERYTHROCYTE COUNT [3]: 5.84 x10E6/uL | HEMATOCRIT [3]: 36.23% | HEMOGLOBIN [3]: 14.47 G/DL | LEUKOCYTE COUNT [3]: 15.63 x10E3/uL | LYMPHOCYTE [3]: 85% | MEAN CORPUSCULAR HEMOGLOBIN [3]: 24.77 pg | MEAN CORPUSCULAR HEMOGLOBIN CONCENTRATION [3]: 39.93 G/DL | MEAN CORPUSCULAR VOLUME [3]: 62 fL | MONOCYTE [3]: 1% | NEUTROPHIL [3]: 13.67% | NUCLEATED RED BLOOD CELLS [3]: 0 /100WBC | PLATELET COUNT [3]: 1170.33 x10E3/uL | ALANINE AMINOTRANSFERASE [3]: 55.67 u/L | ALBUMIN [3]: 4.13 G/DL | ALKALINE PHOSPHATASE [3]: 405 u/L | ASPARTATE AMINOTRANSFERASE [3]: 89.67 u/L | BLOOD UREA NITROGEN [3]: 18.67 mg/dL | CARBON DIOXIDE [3]: 29 mmol/L | CHLORIDE [3]: 97 MEQ/L | CHOLESTEROL [3]: 77 mg/dL | CREATINE PHOSPHOKINASE [3]: 289.33 u/L | CREATININE [3]: 0.1 mg/dL | GLUCOSE [3]: 149.33 mg/dL | LACTATE DEHYDROGENASE [3]: 219.33 u/L | LIPASE [3]: 9.33 u/L | PHOSPHORUS [3]: 13.03 mg/dL | POTASSIUM [3]: 6.88 MEQ/L | SODIUM [3]: 142.57 MEQ/L | TOTAL BILIRUBIN [3]: 0.27 mg/dL | TOTAL PROTEIN [3]: 5.8 G/DL
